According to patent US12187684B2, “Benzimidazole derivatives as modulators of retinoid-related orphan receptor gamma (RORγ) and pharmaceutical use thereof” (Jiangsu Hengrui Medicine Co., Ltd., priority 2018, dated 2025):

Key:
RORγ LBD-GST tagged = target: T1, RORγ LBD-GST tagged (Homo sapiens, UniProt P51449); test: LanthaScreen TR-FRET RORγ coactivator assay; format: biochemical; details: Fluorescein-D22 coactivator peptide, 1 hour room temperature
T1 construct: RORγ LBD-GST tagged (Cat No. RORC-114H, Creative Biomart); purchased Creative Biomart RORC-114H
T1 sequence (P51449 269-508 limits assumed): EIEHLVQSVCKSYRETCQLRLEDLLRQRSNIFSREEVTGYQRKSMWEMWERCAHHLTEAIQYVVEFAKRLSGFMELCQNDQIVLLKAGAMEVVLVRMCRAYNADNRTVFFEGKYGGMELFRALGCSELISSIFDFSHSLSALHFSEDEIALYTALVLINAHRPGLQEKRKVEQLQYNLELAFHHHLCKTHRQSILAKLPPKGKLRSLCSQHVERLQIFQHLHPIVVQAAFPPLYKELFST
Summary of the method: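 GST-tagged RORγ LBD (25 ng/reaction) was incubated in coregulator buffer D with 5 mM DTT and compound (top 3 μM, 7-fold steps, 7 doses), then with a mix containing 0.6 μM fluorescein-D22 peptide and 8 nM Tb anti-GST antibody. After 1 h at room temperature in the dark, 520/495 nm TR-FRET was read. IC50 came from log concentration versus percent inhibition.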

[1] = tested on: IL-17 production, human PBMC cells; test: IL-17 production assay using human PBMC; format: cell-based; details: Homo sapiens, PBMC, 72 h, human PBMC stimulated by cytostim for 3 days, IL-17 ELISA of supernatant
Summary of the method: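 Cryopreserved human PBMCs, 1×10^5 per well in TexMACS, were treated with compound or vehicle (<0.5% DMSO) and stimulated with Cytostim (10 μL/mL) for 3 days at 37 °C. Supernatant IL-17 was measured by ELISA. IC50 was taken from concentration versus percent inhibition.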

Row | SMILES | IC50 (RORγ LBD-GST tagged) [µM] | IC50 [1] [µM]
1 | O=S(=O)(CC1CC1)c1ccc(C(O)c2nc3c(Cl)c(-c4ccccc4OC(F)F)c(Cl)cc3[nH]2)c(F)c1 (centres unmarked) [Example 100, (4-((cyclopropylmethyl)sulfonyl)-2-fluorophenyl)(4,6-dichloro-5-(2-(difluoromethoxy)phenyl)-1H-benzo[d]imidazol-2-yl)methanol] | 0.014 | 0.0013
2 | CCS(=O)(=O)c1ccc(C(CO)c2nc3cc(-c4ccccc4OC(F)(F)F)c(Cl)cc3[nH]2)cc1 (centres unmarked) [Example 119, 2-(6-chloro-5-(2-(trifluoromethoxy)phenyl)-1H-benzo[d]imidazol-2-yl)-2-(4-(ethylsulfonyl)phenyl)ethanol] | 0.034 | 0.124
3 | O=S(=O)(NC1CC1)c1ccc(C(CO)c2nc3c(Cl)c(-c4ccccc4OC(F)(F)F)c(Cl)cc3[nH]2)cc1 (centres unmarked) [Example 123, N-cyclopropyl-4-(1-(4,6-dichloro-5-(2-(trifluoromethoxy)phenyl)-1H-benzo[d]imidazol-2-yl)-2-hydroxyethyl)benzenesulfonamide] | 0.03 | 0.058
4 | CC(C)Oc1ccccc1-c1cc2nc(C(CO)c3ccc(S(=O)(=O)CC4CC4)cc3)[nH]c2cc1Cl (centres unmarked) [Example 124, 2-(6-chloro-5-(2-isopropoxyphenyl)-1H-benzo[d]imidazol-2-yl)-2-(4-((cyclopropylmethyl)sulfonyl)phenyl)ethanol] | 0.205 | 0.032
5 | CCS(=O)(=O)c1ccc(Cc2nc3c(Cl)c(N4CCC(F)(F)CC4)c(Cl)cc3[nH]2)cc1 [Example 125, 4,6-dichloro-5-(4,4-difluoropiperidin-1-yl)-2-(4-(ethylsulfonyl)benzyl)-1H-benzo[d]imidazole] | 0.059 | 0.047
6 | CCS(=O)(=O)c1ccc(C(CO)c2nc3cc(Cl)c(N4CCC(F)(F)CC4)c(Cl)c3[nH]2)cc1 (centres unmarked) [Example 126, 2-(5,7-dichloro-6-(4,4-difluoropiperidin-1-yl)-1H-benzo[d]imidazol-2-yl)-2-(4-(ethylsulfonyl)phenyl)ethanol] | 0.135 | 0.008
7 | O=S(=O)(CC1CC1)c1ccc(Cc2nc3cc(Cl)c(N4CCC(F)(F)CC4)c(Cl)c3[nH]2)cc1 [Example 127, 5,7-dichloro-2-(4-((cyclopropylmethyl)sulfonyl)benzyl)-6-(4,4-difluoropiperidin-1-yl)-1H-benzo[d]imidazole] | 0.22 | 0.013
8 | NCC(c1ccc(S(=O)(=O)CC2CC2)cc1)c1nc2ccc(-c3ccccc3OC(F)F)c(Cl)c2[nH]1 (centres unmarked) [Example 128, 2-(7-chloro-6-(2-(difluoromethoxy)phenyl)-1H-benzo[d]imidazol-2-yl)-2-(4-((cyclopropylmethyl)sulfonyl)phenyl)ethanamine] | 0.006 | 0.091
9 | CC(=O)NCC(c1ccc(S(=O)(=O)CC2CC2)cc1)c1nc2cc(Cl)c(-c3ccccc3OC(F)F)cc2[nH]1 (centres unmarked) [Example 129, N-(2-(5-chloro-6-(2-(difluoromethoxy)phenyl)-1H-benzo[d]imidazol-2-yl)-2-(4-((cyclopropylmethyl)sulfonyl)phenyl)ethyl)acetamide] | 0.014 | 0.242
10 | CC(C)Oc1ccccc1-c1c(Cl)cc2nc(C(O)c3ccc(S(=O)(=O)CC4CC4)cc3)[nH]c2c1Cl (centres unmarked) [Example 133, (4-((cyclopropylmethyl)sulfonyl)phenyl)(5,7-dichloro-6-(2-isopropoxyphenyl)-1H-benzo[d]imidazol-2-yl)methanol] | 0.024 | 0.027
11 | CC(C)Oc1ccccc1-c1c(Cl)cc2nc(C(CO)c3ccc(S(=O)(=O)CC4CC4)cc3)[nH]c2c1Cl (centres unmarked) [Example 134, 2-(4-((cyclopropylmethyl)sulfonyl)phenyl)-2-(5,7-dichloro-6-(2-isopropoxyphenyl)-1H-benzo[d]imidazol-2-yl)ethanol] | 0.006 | 0.003
12 | COc1ccccc1-c1c(Cl)cc2nc(C(CO)c3ccc(S(=O)(=O)CC4CC4)cc3)[nH]c2c1Cl (centres unmarked) [Example 135, 2-(4-((cyclopropylmethyl)sulfonyl)phenyl)-2-(5,7-dichloro-6-(2-methoxyphenyl)-1H-benzo[d]imidazol-2-yl)ethanol] | 0.039 | 0.014
13 | CCOc1ccccc1-c1c(Cl)cc2nc(Cc3ccc(S(=O)(=O)CC4CC4)cc3)[nH]c2c1Cl [Example 136, 5,7-dichloro-2-(4-((cyclopropylmethyl)sulfonyl)benzyl)-6-(2-ethoxyphenyl)-1H-benzo[d]imidazole] | 0.005 | 0.014
14 | CCOc1ccccc1-c1c(Cl)cc2nc(C(CO)c3ccc(S(=O)(=O)CC4CC4)cc3)[nH]c2c1Cl (centres unmarked) [Example 137, 2-(4-((cyclopropylmethyl)sulfonyl)phenyl)-2-(5,7-dichloro-6-(2-ethoxyphenyl)-1H-benzo[d]imidazol-2-yl)ethanol] | 0.013 | 0.004
15 | CCOc1ccccc1-c1c(Cl)cc2nc(C(O)c3ccc(S(=O)(=O)CC4CC4)cc3)[nH]c2c1Cl (centres unmarked) [Example 138, (4-((cyclopropylmethyl)sulfonyl)phenyl)(5,7-dichloro-6-(2-ethoxyphenyl)-1H-benzo[d]imidazol-2-yl)methanol] | 0.018 | 0.009
16 | NC(=O)CC(c1ccc(S(=O)(=O)CC2CC2)cc1)c1nc2cc(Cl)c(-c3ccccc3OC(F)F)cc2[nH]1 (centres unmarked) [Example 141, 3-(5-chloro-6-(2-(difluoromethoxy)phenyl)-1H-benzo[d]imidazol-2-yl)-3-(4-((cyclopropylmethyl)sulfonyl)phenyl)propanamide] | 0.01 | 0.02
17 | O=S(=O)(CC1CC1)c1ccc(C(CCO)c2nc3cc(Cl)c(-c4ccccc4OC(F)F)cc3[nH]2)cc1 (centres unmarked) [Example 142, 3-(5-chloro-6-(2-(difluoromethoxy)phenyl)-1H-benzo[d]imidazol-2-yl)-3-(4-((cyclopropylmethyl)sulfonyl)phenyl)propan-1-ol] | 0.013 | 0.028
18 | CC(C)Oc1ccccc1-c1cc2nc(C(CC(N)=O)c3ccc(S(=O)(=O)CC4CC4)cc3)[nH]c2cc1Cl (centres unmarked) [Example 143, 3-(5-chloro-6-(2-isopropoxyphenyl)-1H-benzo[d]imidazol-2-yl)-3-(4-((cyclopropylmethyl)sulfonyl)phenyl)propanamide] | 0.01 | 0.027
19 | CC(C)Oc1ccccc1-c1cc2nc(C(CCO)c3ccc(S(=O)(=O)CC4CC4)cc3)[nH]c2cc1Cl (centres unmarked) [Example 144, 3-(5-chloro-6-(2-isopropoxyphenyl)-1H-benzo[d]imidazol-2-yl)-3-(4-((cyclopropylmethyl)sulfonyl)phenyl)propan-1-ol] | 0.011 | 0.023
20 | CCS(=O)(=O)c1ccc(C(CCO)c2nc3c(Cl)c(N4CCC(F)(F)CC4)c(Cl)cc3[nH]2)cc1 (centres unmarked) [Example 145, 3-(4,6-dichloro-5-(4,4-difluoropiperidin-1-yl)-1H-benzo[d]imidazol-2-yl)-3-(4-(ethylsulfonyl)phenyl)propan-1-ol] | 0.068 | 0.01
21 | NC(=O)CC(c1ccc(S(=O)(=O)CC2CC2)cc1)c1nc2cc(Cl)c(N3CCC(F)(F)CC3)c(Cl)c2[nH]1 (centres unmarked) [Example 154, 3-(4-((cyclopropylmethyl)sulfonyl)phenyl)-3-(5,7-dichloro-6-(4,4-difluoropiperidin-1-yl)-1H-benzo[d]imidazol-2-yl)propanamide] | 0.049 | 0.077
22 | O=S(=O)(CC1CC1)c1ccc(C(CCO)c2nc3cc(Cl)c(N4CCC(F)(F)CC4)c(Cl)c3[nH]2)cc1 (centres unmarked) [Example 157, 3-(4-((cyclopropylmethyl)sulfonyl)phenyl)-3-(5,7-dichloro-6-(4,4-difluoropiperidin-1-yl)-1H-benzo[d]imidazol-2-yl)propan-1-ol] | 0.007 | 0.022
23 | NC(=O)CC(c1ccc(S(=O)(=O)CC2CC2)cc1)c1nc2cc(Cl)c(-c3ccccc3OC(F)F)c(Cl)c2[nH]1 (centres unmarked) [Example 158, 3-(4-((cyclopropylmethyl)sulfonyl)phenyl)-3-(5,7-dichloro-6-(2-(difluoromethoxy)phenyl)-1H-benzo[d]imidazol-2-yl)propanamide] | 0.005 | 0.187
24 | O=S(=O)(CC1CC1)c1ccc(C(CCO)c2nc3cc(Cl)c(-c4ccccc4OC(F)F)c(Cl)c3[nH]2)cc1 (centres unmarked) [Example 159, 3-(4-((cyclopropylmethyl)sulfonyl)phenyl)-3-(5,7-dichloro-6-(2-(difluoromethoxy)phenyl)-1H-benzo[d]imidazol-2-yl)propan-1-ol] | 0.005 | 0.01
25 | O=S(=O)(CC1CC1)c1ccc(C(CCN2CCOCC2)c2nc3cc(Cl)c(N4CCC(F)(F)CC4)c(Cl)c3[nH]2)cc1 (centres unmarked) [Example 170, 4-(3-(4-((cyclopropylmethyl)sulfonyl)phenyl)-3-(5,7-dichloro-6-(4,4-difluoropiperidin-1-yl)-1H-benzo[d]imidazol-2-yl)propyl)morpholine] | 0.71 | 0.43
